Results from ChEMBL document CHEMBL3244106, “Antidepressant agents. 9. 3,3-Diphenylcyclobutylamines, a new class of central stimulants” (J Med Chem, 1978).
Active and inactive are the calls of the source. The rule behind the calls is not given here.

How the values were obtained:
Mus musculus [1] = test: Antidepressant activity in NMRI albino mouse assessed as hyperactivity by measuring motor excitation at 20 mg/kg, ip after 2 hrs relative to vehicle-treated control; type: functional, organism-based; parameters: dose 20 mg/kg
Mus musculus [2] = test: Antidepressant activity in NMRI albino mouse assessed as hyperactivity by measuring tremor at 20 mg/kg, ip after 2 hrs relative to vehicle-treated control; type: functional, organism-based; parameters: dose 20 mg/kg
Mus musculus [3] = organism: Mus musculus; test: animal or person; conditions: NMRI, Hypothalamus, ip
Mus musculus [4] = test: Antidepressant activity in NMRI albino mouse assessed as hyperactivity by measuring sniffing at 20 mg/kg, ip after 2 hrs relative to vehicle-treated control; type: functional, organism-based; parameters: dose 20 mg/kg
Mus musculus [5] = organism: Mus musculus; test: animal or person; conditions: NMRI, Hypothalamus, ip; remark: listed apart in the source
Mus musculus [6] = organism: Mus musculus; test: animal or person; conditions: NMRI, ip
Mus musculus [7] = organism: Mus musculus; test: animal or person; conditions: NMRI, Hypothalamus, ip; remark: listed apart in the source
Mus musculus [8] = test: Antidepressant activity in NMRI albino mouse assessed as hyperactivity by measuring rearing at 20 mg/kg, ip after 2 hrs relative to vehicle-treated control; type: functional, organism-based; parameters: dose 20 mg/kg
Mus musculus [9] = test: Antidepressant activity in NMRI albino mouse assessed as hyperactivity by measuring repetitive movements of head at 20 mg/kg, ip after 2 hrs relative to vehicle-treated control; type: functional, organism-based; parameters: dose 20 mg/kg
[10] = target: Sodium-dependent serotonin transporter (Mus musculus, UniProt Q60857)
Mus musculus [11] = test: Antidepressant activity in NMRI albino mouse assessed as hyperactivity by measuring irritability at 20 mg/kg, ip after 2 hrs relative to vehicle-treated control; type: functional, organism-based; parameters: dose 20 mg/kg
Mus musculus [12] = test: Antidepressant activity in NMRI albino mouse assessed as increase in locomotion at 20 mg/kg, ip after 2 hrs relative to vehicle-treated control; type: functional, organism-based; parameters: dose 20 mg/kg
[13] = target: Sodium-dependent noradrenaline transporter (Mus musculus, UniProt O55192)
Description: Inhibition of noradrenaline transporter in NMRI albino mouse brain assessed as [3H]NA accumulation in hypothalamus after 5 mins

in vivo = conditions: NMRI albino, mouse, iv
Description: Acute toxicity in iv dosed NMRI albino mouse assessed as lethality up to 24 hrs

Mus musculus [14] = organism: Mus musculus
Description: Mydriatic effect in iv dosed NMRI albino mouse assessed as concentration required to increase pupil diameter by 200%

Mus musculus [15] = test: Antidepressant activity in NMRI albino mouse assessed as hyperactivity by measuring circling of head at 20 mg/kg, ip after 2 hrs relative to vehicle-treated control; type: functional, organism-based; parameters: dose 20 mg/kg
Mus musculus [16] = test: Induction of hyperactivity in NMRI albino mouse at 20 mg/kg, ip in presence of phenoxybenzamine; type: functional, organism-based; parameters: dose 20 mg/kg
Mus musculus [17] = test: Induction of hyperactivity in NMRI albino mouse at 20 mg/kg, ip in presence of pimozide; type: functional, organism-based; parameters: dose 20 mg/kg
Mus musculus [18] = test: Induction of hyperactivity in NMRI albino mouse at 20 mg/kg, ip in presence of reserpine; type: functional, organism-based; parameters: dose 20 mg/kg
Mus musculus [19] = test: Induction of hyperactivity in NMRI albino mouse at 20 mg/kg, ip in presence of methergoline; type: functional, organism-based; parameters: dose 20 mg/kg
Mus musculus [20] = test: Induction of hyperactivity in NMRI albino mouse at 20 mg/kg, ip in presence of alpha-methyltyrosine; type: functional, organism-based; parameters: dose 20 mg/kg

Sodium-dependent serotonin transporter, sequence (Q60857 whole entry): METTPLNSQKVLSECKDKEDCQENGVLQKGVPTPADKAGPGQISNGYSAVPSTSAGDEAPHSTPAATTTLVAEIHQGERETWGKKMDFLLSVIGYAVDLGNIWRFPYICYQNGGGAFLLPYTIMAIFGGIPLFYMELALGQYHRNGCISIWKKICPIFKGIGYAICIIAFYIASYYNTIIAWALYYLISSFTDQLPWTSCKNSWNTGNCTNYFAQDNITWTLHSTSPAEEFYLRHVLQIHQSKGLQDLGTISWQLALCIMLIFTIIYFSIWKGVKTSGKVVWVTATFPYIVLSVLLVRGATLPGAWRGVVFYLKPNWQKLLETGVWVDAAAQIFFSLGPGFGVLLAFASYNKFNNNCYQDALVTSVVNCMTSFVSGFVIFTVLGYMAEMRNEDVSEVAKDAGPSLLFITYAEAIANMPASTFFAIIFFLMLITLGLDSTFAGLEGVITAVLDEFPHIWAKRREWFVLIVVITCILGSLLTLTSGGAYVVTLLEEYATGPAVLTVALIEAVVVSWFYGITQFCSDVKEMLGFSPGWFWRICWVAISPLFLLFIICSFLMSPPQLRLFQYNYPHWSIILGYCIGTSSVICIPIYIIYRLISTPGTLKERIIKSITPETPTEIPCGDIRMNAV
Sodium-dependent noradrenaline transporter, sequence (O55192 whole entry): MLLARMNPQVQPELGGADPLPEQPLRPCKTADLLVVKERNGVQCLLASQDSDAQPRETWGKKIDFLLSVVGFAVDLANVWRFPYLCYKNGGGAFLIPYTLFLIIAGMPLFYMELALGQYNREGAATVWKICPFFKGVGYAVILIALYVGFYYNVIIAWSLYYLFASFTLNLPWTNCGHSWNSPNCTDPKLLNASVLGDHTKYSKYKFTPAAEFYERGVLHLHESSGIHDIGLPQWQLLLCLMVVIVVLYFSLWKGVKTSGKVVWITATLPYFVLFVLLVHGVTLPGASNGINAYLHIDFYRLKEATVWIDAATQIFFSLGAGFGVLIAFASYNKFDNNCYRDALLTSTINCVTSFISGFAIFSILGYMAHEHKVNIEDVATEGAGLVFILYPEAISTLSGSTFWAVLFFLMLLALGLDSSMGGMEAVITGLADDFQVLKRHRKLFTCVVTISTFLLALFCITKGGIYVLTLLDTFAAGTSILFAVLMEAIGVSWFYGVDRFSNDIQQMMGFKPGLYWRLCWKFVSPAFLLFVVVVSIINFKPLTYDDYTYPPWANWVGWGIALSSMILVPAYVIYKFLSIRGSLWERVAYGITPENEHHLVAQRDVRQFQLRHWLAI

Question: What does the source list for Cl.NC1CC(c2ccccc2)(c2ccccc2)C1?
Answer: Activity (Mus musculus [1]): Active; Activity (Mus musculus [2]): Active; ED50 (Mus musculus [3]): 162 µmol/kg; Activity (Mus musculus [4]): Active; ED50 (Mus musculus [5]): 103 µmol/kg; ED50 (Mus musculus [6]): > 38 µmol/kg; ED50 (Mus musculus [7]): > 154 µmol/kg; Activity (Mus musculus [8]): Active; Activity (Mus musculus [9]): Active; IC50 [10]: 2800 nM; Activity (Mus musculus [11]): Active; Activity (Mus musculus [12]): Active; IC50 [13]: 2200 nM; LD50 at 24 h (in vivo): 192 µmol/kg; PD200 (Mus musculus [14]): 15 µmol/kg; Activity (Mus musculus [15]): Active

Question: Which results are given for CNC1CC(c2ccccc2)(c2ccccc2)C1.Cl?
Answer: Activity (Mus musculus [1]): Active; Activity (Mus musculus [2]): Active; ED50 (Mus musculus [3]): 95 µmol/kg; Activity (Mus musculus [4]): Active; ED50 (Mus musculus [5]): 31 µmol/kg; ED50 (Mus musculus [6]): 9 µmol/kg; ED50 (Mus musculus [7]): 91 µmol/kg; Activity (Mus musculus [8]): Active; Activity (Mus musculus [9]): Active; IC50 [10]: 3000 nM; Activity (Mus musculus [11]): Active; Activity (Mus musculus [12]): Active; IC50 [13]: 800 nM; LD50 at 24 h (in vivo): 128 µmol/kg; PD200 (Mus musculus [14]): 9 µmol/kg; Activity (Mus musculus [15]): Active

Question: Which Activity (Mus musculus [1]) does the source give for CN(C)C1CC(c2ccccc2)(c2ccccc2)C1.Cl here?
Answer: Active

Question: What about the Activity (Mus musculus [2]) of the same molecule?
Answer: Active

Question: And the ED50 (Mus musculus [3])?
Answer: 48 µmol/kg

Question: And the Activity (Mus musculus [4])?
Answer: Active

Question: What about the Activity (Mus musculus [16]) of the same molecule?
Answer: Active

Question: What about the ED50 (Mus musculus [5]) of the same molecule?
Answer: 32 µmol/kg

Question: What about the ED50 (Mus musculus [6]) of the same molecule?
Answer: 17 µmol/kg

Question: What about the ED50 (Mus musculus [7]) of the same molecule?
Answer: 104 µmol/kg

Question: What about the Activity (Mus musculus [8]) of the same molecule?
Answer: Active

Question: And the Activity (Mus musculus [17])?
Answer: inactive

Question: What about the Activity (Mus musculus [9]) of the same molecule?
Answer: Active

Question: What about the IC50 [10] of the same molecule?
Answer: 900 nM

Question: What about the Activity (Mus musculus [11]) of the same molecule?
Answer: Active

Question: And the Activity (Mus musculus [12])?
Answer: Active

Question: And the IC50 [13]?
Answer: 800 nM

Question: And the LD50 at 24 h (in vivo)?
Answer: 104 µmol/kg

Question: What about the Activity (Mus musculus [18]) of the same molecule?
Answer: inactive

Question: What about the PD200 (Mus musculus [14]) of the same molecule?
Answer: 24 µmol/kg

Question: And the Activity (Mus musculus [19])?
Answer: Active

Question: What about the Activity (Mus musculus [20]) of the same molecule?
Answer: Active

Question: What about the Activity (Mus musculus [15]) of the same molecule?
Answer: Active

Question: What does the source list for CN(C)CCCN1c2ccccc2CCc2ccc(Cl)cc21 [CLOMIPRAMINE]?
Answer: ED50 (Mus musculus [3]): 20 µmol/kg; ED50 (Mus musculus [5]): 109 µmol/kg; ED50 (Mus musculus [6]): 8 µmol/kg; ED50 (Mus musculus [7]): > 113 µmol/kg; LD50 at 24 h (in vivo): 142 µmol/kg; PD200 (Mus musculus [14]): 6 µmol/kg
